Data taken from article PMC11081458 (Nature structural & molecular biology, 2024).

Columns and labels:
[1] = molecular target: Sas6T (Ruminococcus bromii, UniProt A0ABF7PL48); experiment: Isothermal titration calorimetry with Sas6T; conditions: for n (binding stoichiometry) / binding by ITC (in words): ITC; for n (binding stoichiometry): fitted n
[2] = molecular target: RbCBM26 (Ruminococcus bromii, UniProt A0ABF7PL48); experiment: Isothermal titration calorimetry with RbCBM26; conditions: for n (binding stoichiometry) / binding by ITC (in words): ITC; for n (binding stoichiometry): fitted n
Sequence of RbCBM26 (A0ABF7PL48 31-129 limits assumed): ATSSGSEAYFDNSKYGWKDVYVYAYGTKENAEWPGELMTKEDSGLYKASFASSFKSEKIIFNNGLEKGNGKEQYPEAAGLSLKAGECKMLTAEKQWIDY

[3] = system: W373A site-directed mutant within the BIg–RbCBM74–BIg construct; experiment: Isothermal titration calorimetry with W373A mutant
[4] = system: H289A site-directed mutant within the BIg–RbCBM74–BIg construct; experiment: Isothermal titration calorimetry with H289A mutant; conditions: ITC
[5] = system: F326A site-directed mutant within the BIg–RbCBM74–BIg construct; experiment: Isothermal titration calorimetry with F326A mutant; conditions: ITC
[6] = molecular target: T1, BIg–RbCBM74–BIg (Ruminococcus bromii, UniProt A0ABF7PL48); experiment: Native mass spectrometry titration, BIg–RbCBM74–BIg; conditions: native MS, 5 μM protein, 200 mM ammonium acetate
T1 sequence (A0ABF7PL48 134-665 limits assumed): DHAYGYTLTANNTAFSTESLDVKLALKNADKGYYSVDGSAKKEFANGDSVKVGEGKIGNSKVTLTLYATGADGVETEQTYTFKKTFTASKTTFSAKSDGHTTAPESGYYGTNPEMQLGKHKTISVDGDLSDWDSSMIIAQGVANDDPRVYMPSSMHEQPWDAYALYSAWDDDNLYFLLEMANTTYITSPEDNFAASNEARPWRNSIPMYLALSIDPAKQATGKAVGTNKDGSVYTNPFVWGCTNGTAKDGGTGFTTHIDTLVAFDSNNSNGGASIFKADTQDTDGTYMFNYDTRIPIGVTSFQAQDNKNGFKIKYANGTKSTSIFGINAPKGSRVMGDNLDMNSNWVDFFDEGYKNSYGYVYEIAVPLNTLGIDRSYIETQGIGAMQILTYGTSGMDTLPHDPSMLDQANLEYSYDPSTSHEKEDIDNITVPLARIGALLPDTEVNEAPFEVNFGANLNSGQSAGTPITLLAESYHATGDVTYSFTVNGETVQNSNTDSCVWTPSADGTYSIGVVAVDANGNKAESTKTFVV

[7] = molecular target: T1, BIg–RbCBM74–BIg; experiment: Isothermal titration calorimetry with BIg–RbCBM74–BIg
[8] = molecular target: previously studied CBM26 modules; conditions: read-out: dissociation constant (Kd) range; cited from earlier work

Sequence of Sas6T (A0ABF7PL48 31-665 limits assumed): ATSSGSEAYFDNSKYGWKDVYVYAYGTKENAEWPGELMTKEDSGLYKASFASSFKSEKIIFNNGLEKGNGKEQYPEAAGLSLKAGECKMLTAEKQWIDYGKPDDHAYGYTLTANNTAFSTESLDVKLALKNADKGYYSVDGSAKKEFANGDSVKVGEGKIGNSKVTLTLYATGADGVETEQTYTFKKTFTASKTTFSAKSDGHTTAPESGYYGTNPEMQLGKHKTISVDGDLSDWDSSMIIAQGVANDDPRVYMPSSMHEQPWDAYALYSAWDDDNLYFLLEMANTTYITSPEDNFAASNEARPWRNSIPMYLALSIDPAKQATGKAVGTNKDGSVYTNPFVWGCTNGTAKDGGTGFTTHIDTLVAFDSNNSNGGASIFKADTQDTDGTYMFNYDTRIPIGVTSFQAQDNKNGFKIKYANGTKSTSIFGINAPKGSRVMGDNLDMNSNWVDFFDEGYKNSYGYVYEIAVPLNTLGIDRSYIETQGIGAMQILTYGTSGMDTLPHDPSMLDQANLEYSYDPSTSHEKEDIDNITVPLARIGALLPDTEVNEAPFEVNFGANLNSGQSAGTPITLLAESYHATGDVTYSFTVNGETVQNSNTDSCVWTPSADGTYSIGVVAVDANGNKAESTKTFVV

OC[C@H]1O[C@H](O[C@H]2[C@H](O)[C@@H](O)[C@@H](O[C@H]3[C@H](O)[C@@H](O)[C@@H](O[C@H]4[C@H](O)[C@@H](O)[C@@H](O[C@H]5[C@H](O)[C@@H](O)[C@@H](O[C@H]6[C@H](O)[C@@H](O)[C@@H](O[C@H]7[C@H](O)[C@@H](O)[C@@H](O[C@H]8[C@H](O)[C@@H](O)[C@@H](O[C@H]9[C@H](O)[C@@H](O)[C@@H](O[C@H]%10[C@H](O)[C@@H](O)C(O)O[C@@H]%10CO)O[C@@H]9CO)O[C@@H]8CO)O[C@@H]7CO)O[C@@H]6CO)O[C@@H]5CO)O[C@@H]4CO)O[C@@H]3CO)O[C@@H]2CO)[C@H](O)[C@@H](O)[C@@H]1O (stereo partly shown) [G10, maltodecaose]
n (binding stoichiometry) [1]: 0.8 ± 0.07 | n (binding stoichiometry) [2]: 0.7 ± 0.21 | binding by ITC (in words) [3]: lost binding | decrease in affinity relative to BIg–RbCBM74–BIg [4]: 10–20 fold | decrease in affinity relative to BIg–RbCBM74–BIg [5]: 10–20 fold | Kd [6]: 2.16 ± 0.53 µM | n (binding stoichiometry) ([7]; ITC, fitted n): 0.9 ± 0.20

OC[C@H]1O[C@@H]2O[C@H]3[C@H](O)[C@@H](O)[C@@H](O[C@H]4[C@H](O)[C@@H](O)[C@@H](O[C@H]5[C@H](O)[C@@H](O)[C@@H](O[C@H]6[C@H](O)[C@@H](O)[C@@H](O[C@H]7[C@H](O)[C@@H](O)[C@@H](O[C@H]8[C@H](O)[C@@H](O)[C@@H](O[C@H]1[C@H](O)[C@H]2O)O[C@@H]8CO)O[C@@H]7CO)O[C@@H]6CO)O[C@@H]5CO)O[C@@H]4CO)O[C@@H]3CO [β-cyclodextrin]
Kd [8]: 350 to 600 µM

OC[C@H]1O[C@H](OC[C@H]2O[C@H](O[C@H]3[C@H](O)[C@@H](O)[C@@H](O[C@H]4[C@H](O)[C@@H](O)[C@@H](OC[C@H]5O[C@H](O[C@H]6[C@H](O)[C@@H](O)[C@@H](O[C@H]7[C@H](O)[C@@H](O)C(O)O[C@@H]7CO)O[C@@H]6CO)[C@H](O)[C@@H](O)[C@@H]5O)O[C@@H]4CO)O[C@@H]3CO)[C@H](O)[C@@H](O)[C@@H]2O)[C@H](O)[C@@H](O)[C@@H]1O (stereo partly drawn) [glucosyl-α1,6-maltotriosyl-α 1,6-maltotriose]
binding by ITC (in words) [1]: None of the constructs bound | binding by ITC (in words) [2]: None of the constructs bound | binding by ITC (in words) [7]: None of the constructs bound

maltoheptaose [G7]
binding by ITC (in words) [1]: in the hundreds of μM | binding by ITC (in words) [2]: binds | binding by ITC (in words) [7]: no detectable affinity

OC[C@H]1O[C@@H]2O[C@H]3[C@H](O)[C@@H](O)[C@@H](O[C@H]4[C@H](O)[C@@H](O)[C@@H](O[C@H]5[C@H](O)[C@@H](O)[C@@H](O[C@H]6[C@H](O)[C@@H](O)[C@@H](O[C@H]7[C@H](O)[C@@H](O)[C@@H](O[C@H]1[C@H](O)[C@H]2O)O[C@@H]7CO)O[C@@H]6CO)O[C@@H]5CO)O[C@@H]4CO)O[C@@H]3CO [ACX, α-cyclodextrin]
n (binding stoichiometry) [1]: 1.0 ± 0.4 | binding by ITC (in words) [2]: binds | n (binding stoichiometry) [2]: 0.8 ± 0.13 | binding by ITC (in words) [7]: no detectable affinity

OC[C@H]1O[C@H](O[C@H]2[C@H](O)[C@@H](O)[C@@H](O[C@H]3[C@H](O)[C@@H](O)[C@@H](O[C@H]4[C@H](O)[C@@H](O)[C@@H](O[C@H]5[C@H](O)[C@@H](O)[C@@H](O[C@H]6[C@H](O)[C@@H](O)[C@@H](O[C@H]7[C@H](O)[C@@H](O)[C@@H](O[C@H]8[C@H](O)[C@@H](O)[C@@H](O[C@H]9[C@H](O)[C@@H](O)[C@@H](O[C@H]%10[C@H](O)[C@@H](O)[C@@H](O[C@H]%11[C@H](O)[C@@H](O)[C@@H](O[C@H]%12[C@H](O)[C@@H](O)[C@@H](O[C@H]%13[C@H](O)[C@@H](O)[C@@H](O[C@H]%14[C@H](O)[C@@H](O)C(O)O[C@@H]%14CO)O[C@@H]%13CO)O[C@@H]%12CO)O[C@@H]%11CO)O[C@@H]%10CO)O[C@@H]9CO)O[C@@H]8CO)O[C@@H]7CO)O[C@@H]6CO)O[C@@H]5CO)O[C@@H]4CO)O[C@@H]3CO)O[C@@H]2CO)[C@H](O)[C@@H](O)[C@@H]1O (stereo partly shown) [G14, maltotetradecaose]
Kd [6]: 1.29 ± 0.1 µM

OC[C@H]1O[C@H](O[C@H]2[C@H](O)[C@@H](O)[C@@H](O[C@H]3[C@H](O)[C@@H](O)[C@@H](O[C@H]4[C@H](O)[C@@H](O)[C@@H](O[C@H]5[C@H](O)[C@@H](O)[C@@H](O[C@H]6[C@H](O)[C@@H](O)[C@@H](O[C@H]7[C@H](O)[C@@H](O)[C@@H](O[C@H]8[C@H](O)[C@@H](O)C(O)O[C@@H]8CO)O[C@@H]7CO)O[C@@H]6CO)O[C@@H]5CO)O[C@@H]4CO)O[C@@H]3CO)O[C@@H]2CO)[C@H](O)[C@@H](O)[C@@H]1O (stereo partly shown) [G8, maltooctaose]
Kd [1]: 496 ± 260 µM | binding by ITC (in words) [1]: in the hundreds of μM | Kd [2]: 285 ± 84 µM
